From patent US20260207602A1, “EGFR INHIBITORS” (Blueprint Medicines Corporation, priority 2022, published 2026)

Key:
EGFR (d746-750) = target: T1, EGFR (d746-750) (Homo sapiens, UniProt P00533, DEL746-750); experiment: Biochemical EGFR inhibition assay (Caliper mobility shift), EGFR (d746-750); conditions: biochemical Caliper mobility shift assay, EGFR Exon 19-del enzyme; read-out: Enz EGFR Exon 19-del IC50
T1 construct: purchased SignalChem E10-122JG
Outline: (§1)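 Recombinant EGFR mutant phosphorylates 2.5 μM 5-FAM peptide at 1.0 mM ATP or ATP Km, in 100 mM HEPES pH 7.5, 10 mM MgCl2, 1 mM DTT, 1% DMSO, 25 °C to 10–20% conversion, EDTA stop. Caliper mobility shift separation; apparent IC50 from percent activity versus log concentration.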

[1] = target: intracellular phosphorylation of EGFR (Tyr1068) in PC-9 cells (Homo sapiens, UniProt P00533, DEL746-750); experiment: PC-9 pEGFR AlphaLISA assay; format: cell-based; conditions: 4 hours incubation, read-out: Phos EGFR PC9 IC50
Sequence of intracellular phosphorylation of EGFR (Tyr1068) in PC-9 cells (P00533 with tags, fused parts or gaps DEL746-750): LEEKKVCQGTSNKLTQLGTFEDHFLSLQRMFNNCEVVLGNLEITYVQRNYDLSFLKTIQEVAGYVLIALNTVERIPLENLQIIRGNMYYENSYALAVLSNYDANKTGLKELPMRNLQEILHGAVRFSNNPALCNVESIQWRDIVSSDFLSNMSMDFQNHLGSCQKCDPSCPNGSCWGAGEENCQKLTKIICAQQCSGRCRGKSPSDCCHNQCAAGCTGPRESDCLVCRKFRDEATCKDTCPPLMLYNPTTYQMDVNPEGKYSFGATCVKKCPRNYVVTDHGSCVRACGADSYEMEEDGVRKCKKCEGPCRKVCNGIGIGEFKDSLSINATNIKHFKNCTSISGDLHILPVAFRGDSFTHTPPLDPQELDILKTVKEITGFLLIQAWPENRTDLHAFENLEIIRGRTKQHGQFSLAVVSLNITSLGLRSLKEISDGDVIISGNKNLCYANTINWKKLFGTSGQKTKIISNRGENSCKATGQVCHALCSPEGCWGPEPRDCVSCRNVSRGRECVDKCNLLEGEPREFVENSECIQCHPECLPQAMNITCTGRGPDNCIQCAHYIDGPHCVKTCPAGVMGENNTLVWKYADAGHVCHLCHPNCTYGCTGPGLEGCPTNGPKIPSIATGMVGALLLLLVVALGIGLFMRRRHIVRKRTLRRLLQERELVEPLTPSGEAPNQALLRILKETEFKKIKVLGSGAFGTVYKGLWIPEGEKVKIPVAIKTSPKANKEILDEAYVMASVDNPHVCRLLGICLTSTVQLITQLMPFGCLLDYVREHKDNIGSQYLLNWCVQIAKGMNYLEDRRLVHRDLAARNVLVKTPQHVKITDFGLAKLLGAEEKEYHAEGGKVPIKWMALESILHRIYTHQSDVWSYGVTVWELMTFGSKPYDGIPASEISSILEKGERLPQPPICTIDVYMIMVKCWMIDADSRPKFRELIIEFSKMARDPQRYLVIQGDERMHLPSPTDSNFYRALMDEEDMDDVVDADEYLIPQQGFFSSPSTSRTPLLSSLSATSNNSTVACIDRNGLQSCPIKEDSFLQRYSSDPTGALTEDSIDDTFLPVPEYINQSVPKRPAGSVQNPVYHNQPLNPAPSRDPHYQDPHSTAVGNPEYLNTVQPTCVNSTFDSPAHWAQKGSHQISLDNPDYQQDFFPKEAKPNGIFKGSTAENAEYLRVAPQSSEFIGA
Outline: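 PC-9 cells (EGFR del746-750) in phenol-free DMEM/10% FBS, adhered overnight, then exposed to 10-point 4-fold compound dilutions for 4 h at 37 °C. Lysates assayed for pEGFR Tyr1068 by AlphaLISA SureFire Ultra; IC50 from percent pEGFR inhibition vs log concentration.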

EGFR L858R = target: T2, EGFR L858R (Homo sapiens, UniProt P00533, L858R); experiment: Biochemical EGFR inhibition assay (Caliper mobility shift), EGFR L858R; conditions: biochemical Caliper mobility shift assay, EGFR L858R enzyme; read-out: Enz EGFR L858R IC50
T2 construct: purchased SignalChem E10-122BG
T2 sequence (P00533 25-1210 L858R): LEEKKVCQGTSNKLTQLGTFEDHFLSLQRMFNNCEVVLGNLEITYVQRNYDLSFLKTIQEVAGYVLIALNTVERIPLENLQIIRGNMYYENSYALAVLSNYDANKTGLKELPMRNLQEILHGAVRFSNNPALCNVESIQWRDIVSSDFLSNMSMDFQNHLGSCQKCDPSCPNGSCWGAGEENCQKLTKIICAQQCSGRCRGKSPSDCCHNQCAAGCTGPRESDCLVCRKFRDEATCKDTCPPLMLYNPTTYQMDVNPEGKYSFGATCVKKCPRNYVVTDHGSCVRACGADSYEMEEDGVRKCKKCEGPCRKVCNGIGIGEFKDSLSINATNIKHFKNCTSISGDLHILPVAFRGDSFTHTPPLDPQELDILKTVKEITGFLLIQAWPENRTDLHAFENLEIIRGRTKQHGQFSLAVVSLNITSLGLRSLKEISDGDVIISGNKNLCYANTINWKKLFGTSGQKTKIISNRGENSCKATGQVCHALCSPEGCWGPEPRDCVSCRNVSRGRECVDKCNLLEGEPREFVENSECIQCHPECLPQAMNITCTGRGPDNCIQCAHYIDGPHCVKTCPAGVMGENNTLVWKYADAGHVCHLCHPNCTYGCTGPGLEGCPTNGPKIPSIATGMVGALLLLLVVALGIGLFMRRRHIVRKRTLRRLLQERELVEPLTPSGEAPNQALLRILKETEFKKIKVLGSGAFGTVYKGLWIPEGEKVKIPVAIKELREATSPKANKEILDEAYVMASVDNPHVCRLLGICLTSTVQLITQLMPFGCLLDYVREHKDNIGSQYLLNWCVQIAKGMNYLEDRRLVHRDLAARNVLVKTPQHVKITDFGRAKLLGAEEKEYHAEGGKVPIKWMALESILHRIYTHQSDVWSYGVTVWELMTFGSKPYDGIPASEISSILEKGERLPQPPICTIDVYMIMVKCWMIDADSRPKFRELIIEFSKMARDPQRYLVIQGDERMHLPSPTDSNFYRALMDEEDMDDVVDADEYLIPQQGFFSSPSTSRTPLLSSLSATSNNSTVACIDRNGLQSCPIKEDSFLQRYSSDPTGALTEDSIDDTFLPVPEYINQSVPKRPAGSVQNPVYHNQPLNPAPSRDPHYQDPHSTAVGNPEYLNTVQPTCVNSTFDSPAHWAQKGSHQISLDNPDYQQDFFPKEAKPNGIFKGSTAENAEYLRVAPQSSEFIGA
Outline: as §1

T1 sequence (P00533 with tags, fused parts or gaps DEL746-750 limits assumed): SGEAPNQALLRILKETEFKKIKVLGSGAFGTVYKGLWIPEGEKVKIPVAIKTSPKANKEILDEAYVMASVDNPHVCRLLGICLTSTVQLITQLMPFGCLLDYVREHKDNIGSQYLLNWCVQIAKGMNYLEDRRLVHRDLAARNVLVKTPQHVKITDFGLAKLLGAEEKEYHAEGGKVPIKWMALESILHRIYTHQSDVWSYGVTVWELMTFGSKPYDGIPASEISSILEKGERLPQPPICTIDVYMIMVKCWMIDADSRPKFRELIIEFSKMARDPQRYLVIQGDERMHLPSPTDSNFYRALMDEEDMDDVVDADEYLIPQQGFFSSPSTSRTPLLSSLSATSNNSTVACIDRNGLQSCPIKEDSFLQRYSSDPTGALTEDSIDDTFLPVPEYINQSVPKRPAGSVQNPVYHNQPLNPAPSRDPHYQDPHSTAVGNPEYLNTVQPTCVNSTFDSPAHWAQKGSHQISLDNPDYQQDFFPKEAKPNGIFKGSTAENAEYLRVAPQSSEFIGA

Row | SMILES | IC50 (EGFR (d746-750)) | IC50 [1] | IC50 (EGFR L858R)
1 | C[C@@H](Oc1cc(N2CCN(C)[C@@H]3C[C@@H]32)cc2ncnc(Nc3ccc4ncsc4c3)c12)C1COC1 (single isomer, unassigned) [Example 299] | ≤ 10 nM | 10.1 to 50 nM | 10.1 to 50 nM
2 | CN1CC[C@@H](Nc2cc3c(Nc4ccc5ncsc5c4)ncnc3cc2-c2cnn(C)c2)[C@H](F)C1 (single isomer, unassigned) [Example 325] | ≤ 10 nM | > 50.1 nM | 10.1 to 50 nM
3 | CN1CC[C@@H](Nc2cc3c(Nc4ccc5ncsc5c4)ncnc3cc2-c2cnn(C)c2)[C@H](F)C1 (single isomer, unassigned) [Example 326] | ≤ 10 nM | ≤ 10 nM | ≤ 10 nM
4 | CN1CC[C@@H](Nc2cc3c(Nc4ccc5ncsc5c4)ncnc3cc2-c2ccn(C)n2)[C@H](F)C1 (single isomer, unassigned) [Example 327] | ≤ 10 nM | ≤ 10 nM | ≤ 10 nM
5 | COc1nn(C)cc1-c1cc(O[C@@H]2CCN(C)C[C@H]2F)c2c(Nc3ccc4ncsc4c3)ncnc2c1 (single isomer, unassigned) [Example 358] | ≤ 10 nM | ≤ 10 nM | ≤ 10 nM
6 | CN1CC[C@H](Oc2cc(-c3cn(C)nc3OC(F)F)cc3ncnc(Nc4ccc5ncsc5c4)c23)[C@@H](F)C1 (single isomer, unassigned) [Example 368] | ≤ 10 nM | 10.1 to 50 nM | ≤ 10 nM
7 | CN1CC[C@H](Oc2cc(-c3cn(C)nc3OC(F)F)cc3ncnc(Nc4ccc5ncsc5c4)c23)[C@@H](F)C1 (single isomer, unassigned) [Example 369] | ≤ 10 nM | 10.1 to 50 nM | 10.1 to 50 nM
8 | C[C@@H](Oc1cc(-c2cnn(C)c2)cc2ncnc(Nc3ccc4ncsc4c3F)c12)C1CN(C)C1 (single isomer, unassigned) [Example 387] | ≤ 10 nM | ≤ 10 nM | ≤ 10 nM
9 | C[C@@H](Oc1cc(-c2cnn(C)c2)cc2ncnc(Nc3ccc4ncsc4c3F)c12)C1CN(C)C1 (single isomer, unassigned) [Example 388] | 10.1 to 50 nM | > 50.1 nM | > 50.1 nM
10 | CC[C@H](Oc1cc(-c2cnn(C)c2)cc2ncnc(Nc3ccc4ncsc4c3F)c12)C1CN(C)C1 (single isomer, unassigned) [Example 389] | ≤ 10 nM | 10.1 to 50 nM | 10.1 to 50 nM
11 | CC[C@H](Oc1cc(-c2cnn(C)c2)cc2ncnc(Nc3ccc4ncsc4c3F)c12)C1CN(C)C1 (single isomer, unassigned) [Example 390] | > 50.1 nM | > 50.1 nM | > 50.1 nM
12 | CN1CC[C@H](Nc2cc3c(Nc4ccc5ncsc5c4)ncnc3cc2-c2ccn(C)n2)[C@H](F)C1 (single isomer, unassigned) [Example A05, N4-(benzo[d]thiazol-6-yl)-N6-((3R,4S)-3-fluoro-1-methylpiperidin-4-yl)-7-(1-methyl-1H-pyrazol-3-yl)quinazoline-4,6-diamine or N4-(benzo[d]thiazol-6-yl)-N6-((3S,4R)-3-fluoro-1-methylpiperidin-4-yl)-7-(1-methyl-1H-pyrazol-3-yl)quinazoline-4,6-diamine] | ≤ 10 nM | ≤ 10 nM | ≤ 10 nM
13 | COC[C@@H](C)Oc1cc(-n2cc([C@@H](C)O)cn2)cc2ncnc(Nc3ccc4ncsc4c3F)c12 (single isomer, unassigned) [Example A19] | ≤ 10 nM | ≤ 10 nM | ≤ 10 nM
14 | C[C@@H](Oc1c(F)c(-c2cnn(C)c2)cc2ncnc(Nc3ccc4ncsc4c3F)c12)C1COC1 (single isomer, unassigned) [Example A27] | ≤ 10 nM | 10.1 to 50 nM | ≤ 10 nM
15 | C[C@@H](Oc1c(F)c(-c2cnn(C)c2)cc2ncnc(Nc3ccc4ncsc4c3F)c12)C1COC1 (single isomer, unassigned) [Example A28] | ≤ 10 nM | > 50.1 nM | 10.1 to 50 nM

Continued, values first:

Row | IC50 (EGFR (d746-750)) | IC50 [1] | IC50 (EGFR L858R) | SMILES
16 | ≤ 10 nM | 10.1 to 50 nM | 10.1 to 50 nM | C[C@H]1[C@H](Oc2cc(-c3cnn(C)c3)cc3ncnc(Nc4ccc5ncsc5c4)c23)CN1C (single isomer, unassigned) [Example 321]
17 | ≤ 10 nM | 10.1 to 50 nM | ≤ 10 nM | CN1C[C@H](F)C[C@@H](Oc2cc(-c3cnn(C)c3)cc3ncnc(Nc4ccc5ncsc5c4)c23)C1 (single isomer, unassigned) [Example 333]
18 | ≤ 10 nM | 10.1 to 50 nM | ≤ 10 nM | Cn1cc(-c2cc(O[C@@H]3CNC[C@H](F)C3)c3c(Nc4ccc5ncsc5c4)ncnc3c2)cn1 (single isomer, unassigned) [Example 334]
19 | ≤ 10 nM | ≤ 10 nM | ≤ 10 nM | Cn1cc(-c2cc(O[C@@H]3CNC[C@H](F)C3)c3c(Nc4ccc5ncsc5c4)ncnc3c2)cn1 (single isomer, unassigned) [Example 335]
20 | ≤ 10 nM | ≤ 10 nM | ≤ 10 nM | CN1C[C@H](F)C[C@H](Oc2cc(-c3cnn(C)c3)cc3ncnc(Nc4ccc5ncsc5c4)c23)C1 (single isomer, unassigned) [Example 336]
21 | ≤ 10 nM | ≤ 10 nM | ≤ 10 nM | CN1CC[C@@H](Oc2cc(-c3cnn(C)c3)cc3ncnc(Nc4ccc5ncsc5c4)c23)[C@@H](F)C1 (single isomer, unassigned) [Example 340]
22 | ≤ 10 nM | ≤ 10 nM | ≤ 10 nM | CN1CC[C@H](Oc2cc(-c3cnn(C)c3)cc3ncnc(Nc4ccc5ncsc5c4)c23)[C@@H](F)C1 (single isomer, unassigned) [Example 344]
23 | ≤ 10 nM | ≤ 10 nM | ≤ 10 nM | Cn1cc(-c2cc(O[C@H]3CCNC[C@@H]3F)c3c(Nc4ccc5ncsc5c4)ncnc3c2)cn1 (single isomer, unassigned) [Example 346]
24 | ≤ 10 nM | ≤ 10 nM | ≤ 10 nM | CN1CCC2(COC2)[C@H](Oc2cc(-c3cnn(C)c3)cc3ncnc(Nc4ccc5ncsc5c4)c23)C1 (single isomer, unassigned) [Example 353]
25 | ≤ 10 nM | 10.1 to 50 nM | 10.1 to 50 nM | CN1CCC2(COC2)[C@H](Oc2cc(-c3cnn(C)c3)cc3ncnc(Nc4ccc5ncsc5c4)c23)C1 (single isomer, unassigned) [Example 354]
26 | ≤ 10 nM | 10.1 to 50 nM | ≤ 10 nM | COc1nn(C)cc1-c1cc(O[C@@H]2CCN(C)C[C@H]2F)c2c(Nc3ccc4ncsc4c3)ncnc2c1 (single isomer, unassigned) [Example 359]
27 | ≤ 10 nM | ≤ 10 nM | ≤ 10 nM | COc1nn(C)cc1-c1cc(O[C@H]2CCNC[C@@H]2F)c2c(Nc3ccc4ncsc4c3)ncnc2c1 (single isomer, unassigned) [Example 360]
28 | ≤ 10 nM | ≤ 10 nM | ≤ 10 nM | COc1nn(C)cc1-c1cc(O[C@H]2CN(C)C[C@H]2F)c2c(Nc3ccc4ncsc4c3)ncnc2c1 (single isomer, unassigned) [Example 373]
29 | ≤ 10 nM | 10.1 to 50 nM | ≤ 10 nM | COc1nn(C)cc1-c1cc(O[C@H]2CN(C)C[C@H]2F)c2c(Nc3ccc4ncsc4c3)ncnc2c1 (single isomer, unassigned) [Example 374]
30 | 10.1 to 50 nM | 10.1 to 50 nM | 10.1 to 50 nM | COc1nn(C)cc1-c1cc(O[C@H]2CN(C)C[C@@H]2F)c2c(Nc3ccc4ncsc4c3)ncnc2c1 (single isomer, unassigned) [Example 377]
31 | ≤ 10 nM | ≤ 10 nM | ≤ 10 nM | COc1nn(C)cc1-c1cc(O[C@H]2CN(C)C[C@@H]2F)c2c(Nc3ccc4ncsc4c3)ncnc2c1 (single isomer, unassigned) [Example 378]
32 | ≤ 10 nM | 10.1 to 50 nM | ≤ 10 nM | CN1C[C@H](F)[C@H](Oc2cc(-c3cnn(C)c3)cc3ncnc(Nc4ccc5ncsc5c4)c23)C1 (single isomer, unassigned) [Example 380]
33 | 10.1 to 50 nM | 10.1 to 50 nM | 10.1 to 50 nM | C[C@@H](Oc1cc(-c2cnn(C)c2)cc2ncnc(Nc3ccc4ncsc4c3)c12)C1CN(C)C1 (single isomer, unassigned) [Example 384]
34 | ≤ 10 nM | ≤ 10 nM | ≤ 10 nM | C[C@@H](Oc1cc(-c2cnn(C)c2)cc2ncnc(Nc3ccc4ncsc4c3)c12)C1CN(C)C1 (single isomer, unassigned) [Example 385]
35 | ≤ 10 nM | 10.1 to 50 nM | ≤ 10 nM | Cn1cc(-c2cc(O[C@@H]3C[C@@H](O)[C@@H](O)C3)c3c(Nc4ccc5ncsc5c4)ncnc3c2)cn1 (single isomer, unassigned) [Example A22]
36 | ≤ 10 nM | 10.1 to 50 nM | ≤ 10 nM | Cn1cc(-c2cc(O[C@H]3COC[C@@H]3O)c3c(Nc4ccc5ncsc5c4)ncnc3c2)cn1 (single isomer, unassigned) [Example A29]
37 | ≤ 10 nM | > 50.1 nM | ≤ 10 nM | Cn1cc(-c2cc(O[C@H]3COC[C@@H]3O)c3c(Nc4ccc5ncsc5c4)ncnc3c2)cn1 (single isomer, unassigned) [Example A30]
